Laboratory results from patent US20240308988A1, “Method For Controlling Diamide Resistant Pests and Compounds Therefor” (priority 2021, published 2024).

Tests used:
[1] = tested on: Resistant Plutella xylostella R4 (carries the RyR mutation G4946E); experiment: Resistant Plutella xylostella R4 (Diamond back moth) larvicide L1, feeding/contact, artificial diet in 24-well plates; format: in vivo; settings: Plutella xylostella, 192 h, read-out: control of the resistant strain of Plutella xylostella R4
Method: Resistant Plutella xylostella R4 (Diamond back moth) larvicide L1, feeding/contact 24-well microtiter plates with artificial diet were treated with aqueous test solutions prepared from 10′000 ppm DMSO stock solutions by pipetting. After drying, around 30 Plutella eggs were pipetted through a plastic stencil onto a gel blotting paper and the plate was closed with it. The samples were assessed for mortality in comparison to untreated samples 8 days after infestation.
Chlorantraniliprole was used as standard and a resistance factor of 242 was obtained for this strain
Plutella xylostella resistant strain R4 originated in the lab in 2021 from crossing the R1 strain with a lab-reared susceptible P. xylostella strain (SUS). R4 can be reared and tested on artificial diet and also carries the RyR mutation G4946E conferring resistance to diamides. The strain is selected approximately every two weeks with chlorantraniliprole. The following compounds, according to the present invention, gave at least 80% control of the resistant strain of Plutella xylostella R4 at 50 ppm or below: P11, P18, P26, P31, P33, P34, P36, P38, P42, P43, P46, P49, P50, P52, P56, P58, P60, P61, P63, P64, P65, P66, P67, P73, P76, P84, P97, P99, P102, P105.

[2] = tested on: Resistant Plutella xylostella R1 (multi-resistant larvae having the G4946E resistance mutation); experiment: Resistant Plutella xylostella R1 (Diamond back moth) larvicide L3, feeding/contact, sprayed Chinese cabbage leaves; format: in vivo; settings: Plutella xylostella, 96 h, read-out: control of the resistant strain of Plutella xylostella R1
Method: Resistant Plutella xylostella R1 (Diamond back moth) larvicide L3, feeding/contact Chinese cabbage plants were sprayed with diluted test solutions in an application chamber. Cut off leaves were placed into petri dishes with wetted filter paper and infested 1 day after application with 10 L3 multi-resistant Plutella xylostella larvae having the G4946E resistance mutation.
Samples were assessed 4 days after infestation for mortality and growth regulation.
Chlorantraniliprole was used as standard and a resistance factor of 146 was obtained for this strain.
Plutella xylostella resistant strain R1 originally collected from Taiwan in 2012 that carries the RyR mutation G4946E conferring resistance to diamides. The strain is reared on cabbage plants (Brassica aleracea) and selected approximately every two weeks with chlorantraniliprole.

[3] = tested on: Plutella xylostella (Diamond back moth) ryanodine receptor, containing the G4946E resistance mutation; experiment: In vitro calcium fluorescence assay (Fluo-8 NW, FDSS) in human embryonic kidney cells expressing the ryanodine receptor; format: cell-based; settings: table; EC50 (compound)/EC50 (cyantraniliprole); G4946E RyR in HEK cells
Method: Human embryonic kidney cells expressing the Plutella xylostella (Diamond back moth) ryanodine receptor, containing the G4946E resistance mutation, are loaded with Fluo-8 No Wash (NW) calcium-sensitive dye which responds by fluorescence to a change in intracellular calcium (e.g. stimulated by activation of ryanodine receptor). Test compounds are added in 10 rates to a 384-well plate containing dye-loaded cells and the fluorescent signal is measured using the Hamamatsu FDSS (Functional Drug Screening system). Dose-response curves are plotted to estimate the EC50. EC50 are normalized against an in-assay reference standard (cyantraniliprole) to address inter-assay variability. The ratio for a given compound is then obtained by the following formula:
REC50=EC50 (compound)/EC50 (cyantraniliprole).

Cc1cc(I)cc(C(N)=O)c1NC(=O)c1cc(OCC(F)(F)F)nn1-c1ncccc1Cl [Compound P11, N-(2-carbamoyl-4-iodo-6-methyl-phenyl)-2-(3-chloro-2-pyridyl)-5-(2,2,2-trifluoroethoxy)pyrazole-3-carboxamide]
pest or weed control at 50 µg/mL [1]: ≥ 80%
pest or weed control at 50 µg/mL [2]: ≥ 80%

Cc1cc(I)cc(C(N)=O)c1NC(=O)c1cc(C(F)(F)F)nn1-c1ncccc1Cl [Compound P27, N-(2-carbamoyl-4-iodo-6-methyl-phenyl)-2-(3-chloro-2-pyridyl)-5-(trifluoromethyl)pyrazole-3-carboxamide]
REC50 (Compound of the invention) [3]: 0.18
pest or weed control at 50 µg/mL [2]: ≥ 80%

Cc1cc(C#N)cc(C(N)=O)c1NC(=O)c1cc(Br)nn1-c1ncccc1Cl [Compound P30, 5-bromo-N-(2-carbamoyl-4-cyano-6-methyl-phenyl)-2-(3-chloro-2-pyridyl) pyrazole-3-carboxamide]
REC50 (Compound of the invention) [3]: 0.39
pest or weed control at 50 µg/mL [2]: ≥ 80%

NC(=O)c1cc(Br)cc(Cl)c1NC(=O)c1cc(I)nn1-c1ncccc1Cl [Compound P36, N-(4-bromo-2-carbamoyl-6-chloro-phenyl)-2-(3-chloro-2-pyridyl)-5-iodo-pyrazole-3-carboxamide]
pest or weed control at 50 µg/mL [1]: ≥ 80%
pest or weed control at 50 µg/mL [2]: ≥ 80%

Cc1cc(Br)cc(C(N)=O)c1NC(=O)c1cc(Cn2ncc(C(F)(F)F)n2)nn1-c1ncccc1Cl [Compound P38, N-(4-bromo-2-carbamoyl-6-methyl-phenyl)-2-(3-chloro-2-pyridyl)-5-[[4-(trifluoromethyl)triazol-2-yl]methyl]pyrazole-3-carboxamide]
pest or weed control at 50 µg/mL [1]: ≥ 80%
pest or weed control at 50 µg/mL [2]: ≥ 80%

NC(=O)c1cc(Br)cc(F)c1NC(=O)c1cc(C(F)(F)F)nn1-c1ncccc1Cl [Compound P42, N-(4-bromo-2-carbamoyl-6-fluoro-phenyl)-2-(3-chloro-2-pyridyl)-5-(trifluoromethyl)pyrazole-3-carboxamide]
pest or weed control at 50 µg/mL [1]: ≥ 80%

Cc1cc(Br)cc(C(N)=O)c1NC(=O)c1cc(Cn2nnc(-c3ccc(C(F)(F)F)cc3)n2)nn1-c1ncccc1Cl [Compound P43, N-(4-bromo-2-carbamoyl-6-methyl-phenyl)-2-(3-chloro-2-pyridyl)-5-[[5-[4-(trifluoromethyl)phenyl]tetrazol-2-yl]methyl]pyrazole-3-carboxamide]
pest or weed control at 50 µg/mL [1]: ≥ 80%
pest or weed control at 50 µg/mL [2]: ≥ 80%

NC(=O)c1cc(Br)cc(Br)c1NC(=O)c1cc(C(F)(F)F)nn1-c1ncccc1Cl [Compound P46, 2-(3-chloro-2-pyridyl)-N-(2,4-dibromo-6-carbamoyl-phenyl)-5-(trifluoromethyl)-pyrazole-3-carboxamide]
pest or weed control at 50 µg/mL [1]: ≥ 80%
REC50 (Compound of the invention) [3]: 0.39

Cc1cc(Cl)cc(C(N)=O)c1NC(=O)c1cc(Cn2nnc(-c3ccc(Br)cc3)n2)nn1-c1ncccc1Cl [Compound P49, 5-[[5-(4-bromophenyl)tetrazol-2-yl]methyl]-N-(2-carbamoyl-4-chloro-6-methyl-phenyl)-2-(3-chloro-2-pyridyl)pyrazole-3-carboxamide]
pest or weed control at 50 µg/mL [1]: ≥ 80%
pest or weed control at 50 µg/mL [2]: ≥ 80%

NC(=O)c1cc(Cl)cc(Br)c1NC(=O)c1cc(Cn2ncc(C(F)(F)F)n2)nn1-c1ncccc1Cl [Compound P52, N-(2-bromo-6-carbamoyl-4-chloro-phenyl)-2-(3-chloro-2-pyridyl)-5-[[4-(trifluoromethyl)triazol-2-yl]methyl] pyrazole-3-carboxamide]
pest or weed control at 50 µg/mL [1]: ≥ 80%

Cc1cc(Cl)cc(C(N)=O)c1NC(=O)c1cc(OCC(F)F)nn1-c1ncccc1Cl [Compound P56, N-(2-carbamoyl-4-chloro-6-methyl-phenyl)-2-(3-chloro-2-pyridyl)-5-(2,2-difluoroethoxy)pyrazole-3-carboxamide]
pest or weed control at 50 µg/mL [1]: ≥ 80%

NC(=O)c1cc(I)cc(Cl)c1NC(=O)c1cc(C(F)(F)F)nn1-c1ncccc1Cl [Compound P60, N-(2-carbamoyl-6-chloro-4-iodo-phenyl)-2-(3-chloro-2-pyridyl)-5-(trifluoromethyl)pyrazole-3-carboxamide]
pest or weed control at 50 µg/mL [1]: ≥ 80%

NC(=O)c1cc(I)cc(Cl)c1NC(=O)c1cc(Br)nn1-c1ncccc1Cl [Compound P61, 5-bromo-N-(2-carbamoyl-6-chloro-4-iodo-phenyl)-2-(3-chloro-2-pyridyl) pyrazole-3-carboxamide]
pest or weed control at 50 µg/mL [1]: ≥ 80%

NC(=O)c1cc(I)cc(F)c1NC(=O)c1cc(C(F)(F)F)nn1-c1ncccc1Cl [Compound P64, N-(2-carbamoyl-6-fluoro-4-iodo-phenyl)-2-(3-chloro-2-pyridyl)-5-(trifluoromethyl)pyrazole-3-carboxamide]
pest or weed control at 50 µg/mL [1]: ≥ 80%
REC50 (Compound of the invention) [3]: 0.69

NC(=O)c1cc(I)cc(F)c1NC(=O)c1cc(Br)nn1-c1ncccc1Cl [Compound P65, 5-bromo-N-(2-carbamoyl-6-fluoro-4-iodo-phenyl)-2-(3-chloro-2-pyridyl) pyrazole-3-carboxamide]
pest or weed control at 50 µg/mL [1]: ≥ 80%

Cc1cc(C#N)cc(C(N)=O)c1NC(=O)c1cc(I)nn1-c1ncccc1Cl [Compound P66, N-(2-carbamoyl-4-cyano-6-methyl-phenyl)-2-(3-chloro-2-pyridyl)-5-iodo-pyrazole-3-carboxamide]
pest or weed control at 50 µg/mL [1]: ≥ 80%

Cc1cc(Cl)cc(C(N)=O)c1NC(=O)c1cc(Br)nn1-c1ncccc1Br [Compound P73, 5-bromo-2-(3-bromo-2-pyridyl)-N-(2-carbamoyl-4-chloro-6-methyl-phenyl)pyrazole-3-carboxamide]
pest or weed control at 50 µg/mL [1]: ≥ 80%

Cc1cc(Cl)cc(C(N)=O)c1NC(=O)c1cc(Cn2nnc(-c3ccc(F)cc3)n2)nn1-c1ncccc1Cl [Compound P84, N-(2-carbamoyl-4-chloro-6-methyl-phenyl)-2-(3-chloro-2-pyridyl)-5-[[5-(4-fluorophenyl)tetrazol-2-yl]methyl] pyrazole-3-carboxamide]
pest or weed control at 50 µg/mL [1]: ≥ 80%

Cc1cc(Cl)cc(C(N)=O)c1NC(=O)c1cc(Cn2nnc(-c3cccc(C(F)(F)F)c3)n2)nn1-c1ncccc1Cl [Compound P97, N-(2-carbamoyl-4-chloro-6-methyl-phenyl)-2-(3-chloro-2-pyridyl)-5-[[5-[3-(trifluoromethyl)phenyl]tetrazol-2-yl]methyl]pyrazole-3-carboxamide]
pest or weed control at 50 µg/mL [1]: ≥ 80%

Cc1cc(-c2nnn(Cc3cc(C(=O)Nc4c(C)cc(Cl)cc4C(N)=O)n(-c4ncccc4Cl)n3)n2)ccc1Cl [Compound P99, N-(2-carbamoyl-4-chloro-6-methyl-phenyl)-5-[[5-(4-chloro-3-methyl-phenyl)tetrazol-2-yl]methyl]-2-(3-chloro-2-pyridyl)pyrazole-3-carboxamide]
pest or weed control at 50 µg/mL [1]: ≥ 80%

Cc1cc(Cl)cc(C(N)=O)c1NC(=O)c1cc(Cn2nnc(-c3ccc(F)c(Br)c3)n2)nn1-c1ncccc1Cl [Compound P102, 5-[[5-(3-bromo-4-fluoro-phenyl)tetrazol-2-yl]methyl]-N-(2-carbamoyl-4-chloro-6-methyl-phenyl)-2-(3-chloro-2-pyridyl)pyrazole-3-carboxamide]
pest or weed control at 50 µg/mL [1]: ≥ 80%

Cc1cc(Cl)cc(C(N)=O)c1NC(=O)c1cc(Cn2nnc(-c3ccccc3)n2)nn1-c1ncccc1Cl [Compound P105, N-(2-carbamoyl-4-chloro-6-methyl-phenyl)-2-(3-chloro-2-pyridyl)-5-[(5-phenyltetrazol-2-yl)methyl] pyrazole-3-carboxamide]
pest or weed control at 50 µg/mL [1]: ≥ 80%
